# Measured values: patent publication US20040087623A1, “Pyrazole derivatives against tgf overexpression” (priority 2001, published 2004)
# Counter-ions that a name gives are not always drawn.
# System: TGF-β signaling (PAI-1 promoter-luciferase in HepG2 cells)
# Assay: Assay 1: inhibition of TGF-β induced PAI-1 promoter luciferase reporter in HepG2 cells
# Conditions: 500 μM CPO with TGF-β; % of those obtained in column 11 (TGF-β only)
# Method: The assay was performed in HepG2 cells stably transfected with the PAI-1 promoter (known to be a strong TGF-β responsive promoter) linked to a luciferase (firefly) reporter gene. The compounds were selected on their ability to inhibit luciferase activity in cells exposed to TGF-β. In addition cells were transfected with a second luciferase (Renilla) gene which was not driven by a TGF-β responsive promoter and was used as a toxicity control.
# (96 well-)microplates are seeded, using a multidrop apparatus, with the stably transfected cell line at a concentration of 35000 cells per well in 200 μl of serum-containing medium. These plates are placed in a cell incubator.
# 18 to 24 hours later (Day 2), cell-incubation procedure is launched. Cells are incubated with TGF-β and a candidate compound at concentrations in the range 50 nM to 10 μM (final concentration of DMSO 1%). The final concentration of TGF-β (rhTGFβ-1) used in the test is 1 ng/mL. […] The final volume of the test reaction is 150 μl. Each well contains only one candidate compound and its effect on the PAI-1 promoter is monitored.
# Columns 11 and 12 are employed as controls. Column 11 contains 8 wells in which the cells are incubated in the presence of TGF-β, without a candidate compound. Column 11 is used to determine the ‘reference TGF-β induced firefly luciferase value’ against which values measured in the test wells (to quantify inhibitory activity) may be compared. In wells A12 to D12, cells are grown in medium without TGF-β. The firefly luciferase values obtained from these positions are representative of the ‘basal firefly luciferase activity’. In wells E12 to H12, cells are incubated in the presence of TGF-β and 500 μM CPO (Cyclopentenone, Sigma), a cell toxic compound.
# 12 to 18 hours later (day 3), the luciferase quantification procedure is launched. The following reactions are performed using reagents obtained from a Dual Luciferase Assay Kit (Promega). Cells are washed and lysed with the addition of 10 μl of passive lysis buffer (Promega). Following agitation (15 to 30 mins), luciferase activities of the plates are read in a dual-injector luminometer (BMG lumistar). For this purpose, 50 μl of luciferase assay reagent and 50 μl of ‘Stop & Glo’ buffer are injected sequentially to quantify the activities of both luciferases. The mean Luciferase activity value obtained in wells A11 to H11 (Column 11, TGF-β only) is considered to represent 100% and values obtained in wells A12 to D12 (cells in medium alone) give a basal level (0%). For each of the compounds tested, a concentration response curve is constructed from which an IC50 value can be determined graphically.
row,Structure (SMILES),firefly and renilla luciferase activities (toxicity control)
1,"O=C1C=CCC1 [CPO, Cyclopentenone, reference compound]",around 50%

# Same assay, conditions: Homo sapiens, HepG2, read-out: IC50 value in Assay 1
row,Structure (SMILES),IC50
1,"COCCN(C)C(=O)c1ccc(-c2cc(-c3c[nH]nc3-c3ccccn3)ccn2)cc1 [Example 45, N-(2-Methoxy-ethyl)-N-methyl-4-[4-(3-pyridin-2-yl-1H-pyrazol-4-yl)-pyridin-2-yl]-benzamide]",≤ 5 µM
2,c1ccc(-c2n[nH]cc2-c2ccnc(-c3ccc(CNC4CCOCC4)cc3)c2)nc1 [Example 18],≤ 5 µM
3,"CN(C)Cc1ccc(-c2cc(-c3c[nH]nc3-c3ccccn3)ccn2)cc1 [Example 43, Dimethyl-{4-[4-(3-pyridin-2-yl-1H-pyrazol-4-yl)pyridin-2-yl]-benzyl}-amine]",≤ 5 µM
4,"O=C(CN1CCCC1)Nc1ccc(-c2cc(-c3c[nH]nc3-c3ccccn3)ccn2)cc1 [Example 22, 2-Pyrrolidin-1-yl-N-{4-[4-(3-pyridin-2-yl-1H-pyrazol-4-yl)-pyridin-2-yl]-phenyl}-acetamide]",≤ 5 µM
5,"CCN1CCCC1CNC(=O)c1ccc(-c2cc(-c3c[nH]nc3-c3ccccn3)ccn2)cc1 (stereo not shown) [Example 29, N-(1-Ethyl-pyrolidin-2-ylmethyl)-4-[4-(3-pyridin-2-yl-1H-pyrazol-4-yl)-pyridin-2-yl]-benzamide]",≤ 5 µM
6,"O=C(c1ccc(-c2cc(-c3c[nH]nc3-c3ccccn3)ccn2)cc1)N1CCOCC1 [Example 39, 4-{4-[4-(3-Pyridin-2-yl-1H-pyrazol-4-yl)-pyridin-2-yl]-benzoyl}-morpholine]",≤ 5 µM
7,"CN1CCN(CC(=O)Nc2ccc(-c3cc(-c4c[nH]nc4-c4ccccn4)ccn3)cc2)CC1 [Example 24, 2-(4-Methyl-piperazin-1-yl)-N-{4-[4-(3-pyridin-2-yl-1H-pyrazol-4-yl)-pyridin-2-yl]-phenyl}-acetamide]",≤ 5 µM
8,"Fc1ccc(-c2cc(-c3c[nH]nc3-c3ccccn3)ccn2)cc1 [Example 4, 2-(4-Fluorophenyl)-4-(3-pyridin-2-yl-1H-pyrazol-4-yl)pyridine]",≤ 5 µM
9,"c1ccc(-c2n[nH]cc2-c2ccnc(-c3ccsc3)c2)nc1 [Example 10, 2-(Thiophen-3-yl)-4-(3-pyridin-2-yl-1H-pyrazol-4-yl)pyridine]",≤ 5 µM
10,"CN(C)C1CCN(C(=O)c2ccc(-c3cc(-c4c[nH]nc4-c4ccccn4)ccn3)cc2)CC1 [Example 40, (4-Dimethylamino)-1-{4-[4-(3-pyridin-2-yl-1H-pyrazol-4-yl)-pyridin-2-yl]-benzoyl}-piperidine]",≤ 5 µM
11,"O=C(NC1CCOCC1)c1ccc(-c2cc(-c3c[nH]nc3-c3ccccn3)ccn2)cc1 [Example 28, 4-[4-(3-Pyridin-2-yl-1H-pyrazol-4-yl)-pyridin-2-yl]-N-(tetrahydro-pyran-4-yl)-benzamide]",≤ 5 µM
12,"FC(F)(F)c1ccc(-c2cc(-c3c[nH]nc3-c3ccccn3)ccn2)cc1 [Example 2, 2-[4(Trifluoromethyl)Phenyl]-4-(3-pyridin-2-yl-1H-pyrazol-4-yl) Pyridine]",≤ 5 µM
13,"N#CCCNCc1ccc(-c2cc(-c3c[nH]nc3-c3ccccn3)ccn2)cc1 [Example 12, 3-({4-[4-(3-Pyridin-2-yl-1H-pyrazol-4-yl)pyridin-2-yl]benzyl}amino)propanenitrile]",≤ 5 µM
14,"Clc1ccc(-c2cc(-c3c[nH]nc3-c3ccccn3)ccn2)cc1 [Example 5, 2-(4-Chlorophenyl)-4-(3-pyridin-2-yl-1H-pyrazol4-yl)pyridine]",≤ 5 µM
15,"c1ccc(-c2n[nH]cc2-c2ccnc(-c3ccc(CN4CCOCC4)cc3)c2)nc1 [Example 19, {4-[4-(3-Pyridin-2-yl-1H-pyrazol-4-yl)pyridin-2-yl]benzyl}-morpholine hydrochloride]",≤ 5 µM
16,"O=C(NCC1CCOCC1)c1ccc(-c2cc(-c3c[nH]nc3-c3ccccn3)ccn2)cc1 [Example 44, 4-[4-(3-Pyridin-2-yl-1H-pyrazol-4-yl)-pyridin-2-yl]-N-(tetrahydropyran-4-yl-methyl)-benzamide]",≤ 5 µM
17,"CN1CCC(NCc2ccc(-c3cc(-c4c[nH]nc4-c4ccccn4)ccn3)cc2)CC1 [Example 37, (1-Methyl-piperidin-4-yl)-{4-[4-(3-pyridin-2-yl-1H-pyrazol-4-yl)pyridin-2-yl]benzyl}-amine]",≤ 5 µM
18,"CCc1ccc(-c2cc(-c3c[nH]nc3-c3ccccn3)ccn2)cc1 [Example 9, 2-(4-Ethylphenyl)-4-(3-pyridin-2-yl-1H-pyrazol-4-yl)pyridine]",≤ 5 µM
19,"c1ccc(-c2n[nH]cc2-c2ccnc(-c3ccco3)c2)nc1 [Example 6, 2-(Furan-2-yl)-4-(3-pyridin-2-yl-1H-pyrazol-4-yl)pyridine]",≤ 5 µM
20,"CN1CCN(C(=O)c2ccc(-c3cc(-c4c[nH]nc4-c4ccccn4)ccn3)cc2)CC1 [Example 38, 1-Methyl-4-{4-[4-(3-pyridin-2-yl-1H-pyrazol-4-yl)-pyridin-2-yl]-benzoyl}-piperazine]",≤ 5 µM
21,"O=C(CN1CCOCC1)Nc1ccc(-c2cc(-c3c[nH]nc3-c3ccccn3)ccn2)cc1 [Example 23, 2-Morpholin-1-yl-N-{4-[4-(3-pyridin-2-yl-1H-pyrazol-4-yl)-pyridin-2-yl]phenyl}-acetamide]",≤ 5 µM
22,"O=C(NCC1CCCCC1)c1ccc(-c2cc(-c3c[nH]nc3-c3ccccn3)ccn2)cc1 [Example 47, N-Cyclohexylmethyl-4-[4-(3-pyridin-2-yl-1H-pyrazol-4-yl)-pyridin-2-yl]-benzamide]",≤ 5 µM
23,"CN1CCN(CCC(=O)Nc2ccc(-c3cc(-c4c[nH]nc4-c4ccccn4)ccn3)cc2)CC1 [Example 27, 3-(4-Methyl-piperazin-1-yl)-N{4-[4-(3-pyridin-2-yl-1H-pyrazol-4-yl)-pyridin-2yl]-phenyl}-propionamide]",≤ 5 µM
24,"c1ccc(-c2cc(-c3c[nH]nc3-c3ccccn3)ccn2)cc1 [Example 1, 2-Phenyl-4-(3-pyridin-2-yl-1H-pyrazol-4-yl)pyridine]",≤ 5 µM
25,"COCCNC(=O)c1ccc(-c2cc(-c3c[nH]nc3-c3ccccn3)ccn2)cc1 [Example 46, N-(2-Methoxy-ethyl)-4-[4-(3-pyridin-2-yl-1H-pyrazol-4-yl)-pyridin-2-yl]-benzamide]",≤ 5 µM
26,"CN(Cc1ccc(-c2cc(-c3c[nH]nc3-c3ccccn3)ccn2)cc1)c1cccnc1 [Example 20, Pyridin-3-yl-methyl-{4-[4-(3-pyridin-2-yl-1H-pyrazol-4-yl)pyridin-2-yl]benzyl}-amine]",≤ 5 µM

# Continued, values first:
row,IC50,Structure (SMILES)
1,≤ 5 µM,"c1ccc(-c2n[nH]cc2-c2ccnc(-c3ccc(OCCN4CCCC4)cc3)c2)nc1 [Example 11, 2-[4-(2-Pyrrolidin-1-ylethoxy)-phenyl]-4-(3-pyridin-2-yl-1H-pyrazol-4-yl)pyridine]"
2,≤ 5 µM,O=C(CCN1CCOCC1)Nc1ccc(-c2cc(-c3c[nH]nc3-c3ccccn3)ccn2)cc1 [Example 26]
3,≤ 5 µM,"COc1ccc(-c2cc(-c3c[nH]nc3-c3ccccn3)ccn2)cc1 [Example 3, 2-(4-Methoxyphenyl)-4-(3-pyridin-2-yl-1H-pyrazol-4-yl)pyridine]"
4,≤ 5 µM,"FC(F)(F)Oc1ccc(-c2cc(-c3c[nH]nc3-c3ccccn3)ccn2)cc1 [Example 7, 2-(4-Trifluoromethoxyphenyl)-4-(3-pyridin-2-yl-1H-pyrazol-4-yl)pyridine]"
5,≤ 5 µM,"O=C(CN1CCCCC1)Nc1ccc(-c2cc(-c3c[nH]nc3-c3ccccn3)ccn2)cc1 [Example 21, 2-Piperidin-1-yl-N-{4-[4-(3-pyridin-2-yl-1H-pyrazol-4-yl)-pyridin-2-yl]-phenyl}-acetamide]"
6,≤ 5 µM,"Cn1cncc1COc1ccc(-c2cc(-c3c[nH]nc3-c3ccccn3)ccn2)cc1 [Example 16, 2-[4-(3-Methyl-3H-imidazol-4-ylmethoxy)-phenyl]-4-(3-pyridin-2-yl-1-H-pyrazol-4)-pyridine]"
7,≤ 5 µM,"O=C(CCN1CCCCC1)Nc1ccc(-c2cc(-c3c[nH]nc3-c3ccccn3)ccn2)cc1 [Example 25, 3-Piperidin-1-yl-N{4-[4-(3-pyridin-2-yl-1H-pyrazol-4-yl)-pyridin-2-yl]-phenyl}-propionamide hydrochloride]"
8,≤ 5 µM,"c1ccc(-c2n[nH]cc2-c2ccnc(-c3ccc(OCCn4ccnc4)cc3)c2)nc1 [Example 17, 2-[4-(2-{1H-Imidazol-1-yl}-ethoxy)-phenyl]-4-(3-pyridin-2-yl-1H-pyrazol-4-yl)-pyridine]"
9,≤ 5 µM,"Cc1ccc(-c2cc(-c3c[nH]nc3-c3ccccn3)ccn2)cc1 [Example 8, 2-(4-Methylphenyl)-4-(3-pyridin-2-yl-1H-pyrazol-4-yl)pyridine]"
10,≤ 5 µM,"Cn1cnc(COc2ccc(-c3cc(-c4c[nH]nc4-c4ccccn4)ccn3)cc2)c1 [Example 14, 2-[4-(1-Methyl-1-H-imidazol-4-ylmethoxy)-phenyl]-4-(3-pyridin-2-yl-1H-pyrazol-4-yl)-pyridine]"
11,≤ 5 µM,"c1ccc(-c2n[nH]cc2-c2ccnc(-c3ccc(N4CCOCC4)cc3)c2)nc1 [Example 13, 4-{4-[4-(3-Pyridin-2-yl-1H-pyrazol-4-yl)-pyridin-2-yl]-phenyl}-morpholine]"
12,≤ 5 µM,"COC1CCN(Cc2ccc(-c3cc(-c4c[nH]nc4-c4ccccn4)ccn3)cc2)CC1 [Example 34, 4-Methoxy-1-{4-[4-(3-pyridin-2-yl-1H-pyrazol-4-yl)pyridin-2-yl]benzyl}-piperidine]"
13,≤ 5 µM,"Cn1ccnc1COc1ccc(-c2cc(-c3c[nH]nc3-c3ccccn3)ccn2)cc1 [Example 15, 2-[4-(1-Methyl-1H-imidazol-2-ylmethoxy)-phenyl]-4-(3-pyridin-2-yl-1H-pyrazol-4-yl)pyridine]"
